In PubChem BioAssay (NCI):
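The compound was tested at five concentrations on cells cultured in 96-well plates, with a 48-hour exposure period. Here, GI50 denotes the concentration required for 50% inhibition of growth. At the TGI there is no net growth.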

What was measured:
Assay in all cases: DTP human tumour cell line panel, 48 h
[1] = system: ACHN renal
[2] = system: RXF 393 renal
[3] = system: NCI-H226 lung
[4] = system: COLO 205 colon
[5] = system: A549 NSCLC
[6] = system: MOLT-4 leukemia
[7] = system: UACC-257 melanoma
[8] = system: BT-549 breast
[9] = system: SK-MEL-28 melanoma
[10] = system: SNB-75 CNS

Compound | TGI [1] [µM] | TGI [2] [µM] | TGI [3] [µM] | TGI [4] [µM] | TGI [5] [µM] | TGI [6] [µM] | TGI [7] [µM] | TGI [8] [µM] | TGI [9] [µM] | TGI [10] [µM] | GI50 [1] [µM] | GI50 [2] [µM] | GI50 [3] [µM] | GI50 [4] [µM] | GI50 [5] [µM] | GI50 [6] [µM] | GI50 [7] [µM] | GI50 [8] [µM] | GI50 [9] [µM] | GI50 [10] [µM]
Cn1ccnc1Sc1ccc(C=Nc2ccc3nc(SCC(=O)NC4CCCCC4)sc3c2)cc1[N+](=O)[O-] | > 100 | 23.4 | > 100 | > 100 | > 100 | > 100 | > 100 | 46.8 | > 100 | 8.84 | – | – | – | – | – | – | – | – | – | –
N#CCCN(CCC#N)c1ccc(/C=C2\SC(=S)NC2=O)cc1Br | > 100 | > 100 | > 100 | > 100 | > 100 | > 100 | > 100 | > 100 | > 100 | > 100 | – | – | – | – | – | – | – | – | – | –
S=C1CC(c2ccccc2)Sc2ccc(Cl)cc2N1 (configuration not stated) | > 100 | 25.7 | > 100 | > 100 | > 100 | > 100 | > 100 | > 100 | > 100 | > 100 | – | – | – | – | – | – | – | – | – | –
C=C1C(=O)OC2/C=C(/C)C3(O)OC(C)(CC(OC(=O)C(C)C)C12)CC3OC(C)=O (configuration not stated) | 8.67 | 6.82 | > 87 | 18.1 | > 100 | > 31.6 | 68 | 22.3 | > 53 | > 100 | – | – | – | – | – | – | – | – | – | –
O=C(O)c1ccc2c(c1)CC1(C2)Cc2cc3c(cc2C1=O)CCC3 (configuration not stated) | > 100 | > 100 | > 100 | > 100 | > 100 | > 100 | > 100 | > 100 | > 100 | > 100 | – | – | – | – | – | – | – | – | – | –
CC/C(Cl)=N\OC(=O)Nc1ccc(F)c([N+](=O)[O-])c1 | 4.78 | 30.4 | > 100 | 6.58 | 43.4 | > 36.3 | 35.1 | 31.5 | 33.9 | 38.9 | – | – | – | – | – | – | – | – | – | –
CC1C(c2ccc3c(c2)OCO3)c2cc3c(cc2OC1N1CCOCC1)OCO3 (configuration not stated) | > 100 | 51.9 | 81.7 | 47.4 | > 100 | 66.9 | > 100 | > 100 | > 46.4 | 99.3 | – | – | – | – | – | – | – | – | – | –
Cc1ccc(S(=O)(=O)NC(=O)NNc2ccc(F)cc2)cc1 | > 100 | > 100 | > 100 | > 100 | > 100 | > 100 | > 100 | > 31.6 | > 100 | > 75.8 | – | – | – | – | – | – | – | – | – | –
CCN(CC)CCNc1ccc2ncn3c4cc(OC)c(OC)c(=O)c4c(O)c1c23 | 20.5 | 6.26 | 45.6 | 17.4 | 35.1 | 11.5 | 44.2 | 30.5 | 27.5 | 16.5 | – | – | – | – | – | – | – | – | – | –
COc1ccc(/C=N/N2C(=O)c3c(N)c(C#N)c(-c4ccccc4)c(-c4ccccc4)c3C2=O)cc1 | > 100 | > 100 | > 100 | > 100 | > 100 | > 100 | > 100 | > 100 | > 100 | > 100 | – | – | – | – | – | – | – | – | – | –
NS(=O)(=O)c1ccc(NC(NC(=O)C(C(F)(F)F)C(F)(F)F)(C(F)(F)F)C(F)(F)F)cc1 | > 100 | > 100 | > 100 | > 100 | > 100 | > 100 | > 100 | > 100 | > 100 | > 100 | – | – | – | – | – | – | – | – | – | –
Cc1ccc(-c2c(C#N)c(-c3ccc([N+](=O)[O-])cc3)c(C#N)c(=O)n2NS(=O)(=O)c2ccccc2)cc1 | > 100 | > 100 | > 100 | > 100 | > 100 | 52.8 | > 100 | 94.9 | > 100 | > 100 | – | – | – | – | – | – | – | – | – | –
CCc1nc2cc3cccnc3c(Cl)c2[nH]c1=O | > 100 | 91.1 | > 100 | > 100 | > 100 | > 100 | > 100 | > 100 | > 100 | 50.4 | – | – | – | – | – | – | – | – | – | –
COc1ccc2c(c1)CCN=C2c1ccccc1CCCCl | 64.9 | 82.1 | > 100 | 23.4 | > 100 | 42.4 | > 100 | > 100 | > 100 | > 100 | – | – | – | – | – | – | – | – | – | –
COc1ccc(-c2csc(NC(=O)CSc3nc(C)c(-c4ccccc4)n3Nc3ccccc3)n2)cc1 | > 100 | > 100 | > 100 | > 100 | > 100 | > 100 | > 100 | > 100 | > 100 | > 100 | > 100 | > 100 | > 100 | 9.7 | 4.87 | 3.78 | > 100 | 8.93 | > 100 | 12.8
Clc1ccc(Cl)c(SCCCN2CCNCC2)c1 | 31.1 | 32.4 | 43.4 | 38.4 | 44.4 | 40.6 | 26.5 | 33.6 | 26.9 | 35.3 | – | – | – | – | – | – | – | – | – | –
CCOC(=O)C1(C(=O)OCC)CCCN1C(=O)[C@H](CNC(=O)OC(C)(C)C)NC(=O)OCc1ccccc1 | > 100 | > 100 | > 100 | > 100 | > 100 | > 100 | > 100 | > 100 | > 100 | > 100 | – | – | – | – | – | – | – | – | – | –
c1ccc(C2=Nn3c(CCCCCCCCc4nnc5n4N=C(c4ccccc4)CS5)nnc3SC2)cc1 | > 100 | 67.5 | > 100 | > 100 | > 100 | > 77.9 | > 100 | > 100 | > 100 | 33.6 | – | – | – | – | – | – | – | – | – | –
CC1=C[C@@H](C)C[C@]2(C)CC[C@H](O2)[C@]23CC[C@](C(=O)O)(C[C@H](O2)[C@@H]2O[C@@](C)(CC2=O)[C@@H](O)[C@H]2CC[C@@]4(CCC[C@@H](O4)[C@H](C)C(=O)O[C@H]4C[C@H]([C@]5(O)OCC[C@H](C)[C@@H]5O)O[C@H]4C=C1)O2)O3 | > 10 | > 10 | > 10 | > 10 | > 10 | > 10 | > 10 | > 10 | > 10 | > 6.85 | – | – | – | – | – | – | – | – | – | –
O/C(=C\c1nc2ccccc2nc1NC12CC3CC(CC(C3)C1)C2)c1ccc(Br)cc1 | > 10 | > 10 | > 10 | > 10 | > 10 | > 10 | > 10 | > 10 | > 10 | > 10 | – | – | – | – | – | – | – | – | – | –
Cc1cn([C@H]2C[C@](C)(CO)N(C)O2)c(=O)[nH]c1=O | > 100 | > 100 | > 100 | > 100 | > 100 | > 100 | > 100 | > 100 | > 100 | > 100 | – | – | – | – | – | – | – | – | – | –
COc1ccc(N=C2C(=S)N(c3ccc(OC)cc3)/C(=N/S(=O)(=O)c3ccccc3)N2c2ccccc2)cc1 | 21.7 | 16 | 38.7 | 24.8 | > 73.1 | > 100 | 26.6 | 11.2 | 29.7 | 35.1 | – | – | – | – | – | – | – | – | – | –
COc1ccc(N=Nc2c3c(c(O)c4ccccc24)CCC(C)(C)O3)cc1 | 32.4 | 34 | > 100 | 72.8 | 39 | > 100 | 37.5 | 34.6 | 43.1 | 52.9 | – | – | – | – | – | – | – | – | – | –
COC(=O)[C@H](C)NC(=O)[C@H](CSC)N1C(=O)N[C@@H](C(C)C)C1=O | > 100 | > 100 | > 100 | > 100 | > 100 | > 100 | > 100 | > 100 | > 100 | > 100 | – | – | – | – | – | – | – | – | – | –
COc1ccc(N=NC(=Nc2ccc(F)cc2)c2ccc(N(CCC#N)CCC#N)cc2)cc1 | > 100 | 90 | > 100 | > 100 | 43.1 | > 100 | 70.4 | 70.8 | > 100 | 84.1 | – | – | – | – | – | – | – | – | – | –
O=C(CNCc1ccccc1)Oc1c(Cl)c(Cl)c(Cl)c(Cl)c1Cl | 51.1 | > 100 | 83.1 | 85.9 | 69.1 | 50.6 | 54.8 | 44.2 | > 100 | > 100 | – | – | – | – | – | – | – | – | – | –
CC(C)(C)c1ccc(OCC(=O)O)c(Cl)c1 | > 100 | > 100 | > 100 | > 100 | > 100 | > 100 | > 100 | > 100 | > 100 | > 100 | – | – | – | – | – | – | – | – | – | –
O=C(O)c1c2c(cc3c1CC1(Cc4ccccc4C1=O)C3)CCC2 (configuration not stated) | > 100 | > 100 | > 85.8 | 54.6 | > 100 | 36 | > 100 | > 93.4 | > 100 | > 94.6 | – | – | – | – | – | – | – | – | – | –
Cc1c2ccncc2c(C)c2c1[nH]c1ccccc12 | 4.32 | 0.595 | 5.46 | 1.83 | 2.96 | 1.75 | 4.64 | 3.34 | 3 | 2.64 | 0.473 | – | – | – | – | – | – | 1.56 | – | –
O=C1c2cccc(NCCNCCO)c2C(=O)c2cccc(NCCNCCO)c21 | 8.16 | 3.89 | 3.51 | 2.09 | 7.78 | 6.3 | 9.4 | 8.85 | 5.88 | 3.03 | – | – | – | – | – | – | – | – | – | –
